The test system of the test is S. aureus, MRSA 1A-218, 1A-318, 1B-374, 1B-315, 1B-185, 1B387 and MSSA ATCC-6538, ATCC-29213. The test is described as follows: MIC by standard microdilution method against S. aureus (MRSA and MSSA strains). The test is classed as cell-based. Particulars: Staphylococcus aureus; against all 8 strains of S. aureus tested except where indicated; microdilution, Ca-MHB, 35° C., 24 hr; read-out: MIC. The procedure: A standard microdilution method (NCCLS, 2000; Document M7-A5) was used to determine the minimum inhibitory concentrations (MICs) against S. aureus, methicillin-resistant strains (MRSA); 1A-218, 1A-318, 1B-374, 1B-315, 1B-185, 1B387 (Simor et al. 1999 Can Commun Dis Rep; 25:105-108) and methicillin-sensitive strains (MSSA); ATCC-6538 and ATCC-29213. The MICs of some compounds were also determined against other Gram-positive bacteria: Enterococcus faecium (ATCC 51559), Enterococcus faecalis (ATCC-51299, ATCC-29212) and Staphylococcus epidermidis (ATCC-35983).
Mueller-Hinton broth (MHB) is recommended as the medium of choice for susceptibility testing of commonly isolated, rapidly growing aerobic organisms such as the Gram-positive bacteria included in this study. A “cation-adjusted Mueller-Hinton broth” (Ca-MHB) was prepared by first preparing standard MHB from a dehydrated base as recommended by the manufacturer.
Single colonies from fresh agar plates of the different bacterial cultures were sub-cultured overnight in 3 ml of Tryptic soy broth (TSB) at 37° C. with shaking at 250 RPM. After 18-20 hours of incubation, the absorbance at λ=600 nm (OD600) were determined for each culture and adjusted to a final OD600=0.1 (4.2×10^7 cfu/ml). Bacterial suspensions were then diluted 1:200 in sterile Ca-MHB for the in vitro susceptibility test, with each well of the microtitre plate containing approximately 2×10^5 cfu/ml.
Stock solutions of the different test compounds were prepared at concentrations of 1,280 μg/ml, 640 μg/ml, or 320 μg/ml in 50% DMSO (dimethyl sulfoxide). Serial two-fold dilutions were then prepared in 50% DMSO (the working concentrations were 1:10 of the stock concentrations in 100 μl culture suspensions). The filled microtitre plates were sealed in plastic bags and incubated at 35° C. for 24 hr in an ambient air incubator with shaking at 250 RPM. MIC values were determined as the lowest concentration where complete inhibition of the visible bacterial growth was observed by the unaided eye and confirmed by the measurement of the optical density (OD600).

In patent publication US7884120B2, “2,4,5-trisubstituted imidazoles and their use as anti-microbial agents” (Lorus Therapeutics Inc., priority 2002, dated 2011) one finds MIC data, which are given here for 46 molecules.

Values after ≈ are worked out from the molar mass of the structure shown.

Take `Cc1[nH]c2ccccc2c1-c1nc(-c2ccc(F)cc2)c(-c2ccc(F)cc2)[nH]1` [Compound 7]: the MIC was 4 to 16 µg/mL (≈ 10.4 to 41.5 µM).

As to `COc1ccc(-c2nc(-c3c(C)[nH]c4ccccc34)[nH]c2-c2ccc(OC)cc2)cc1` [Compound 9], the MIC came to 8 µg/mL (≈ 19.5 µM). As for `Cc1[nH]c2ccccc2c1-c1nc(-c2ccccn2)c(-c2ccccn2)[nH]1` [Compound 15], the figure is above 128 µg/mL; as for `COc1ccccc1-c1nc(-c2c(C)[nH]c3ccccc23)[nH]c1-c1ccccc1OC` [Compound 17], 16 µg/mL (≈ 39.1 µM). Then `Clc1ccc(-c2nc(-c3c[nH]c4ccc(Br)cc34)[nH]c2-c2ccc(Cl)cc2)cc1` [Compound 20], with 2 to 4 µg/mL (≈ 4.14 to 8.28 µM); and `Cc1[nH]c2ccccc2c1-c1nc(-c2cccc(Cl)c2)c(-c2cccc(Cl)c2)[nH]1` [Compound 21], with 8 to 16 µg/mL (≈ 19.1 to 38.2 µM).

With `Cc1ccc(-c2nc(-c3c(C)[nH]c4ccccc34)[nH]c2-c2ccc(C)cc2)cc1` [Compound 23], the minimal inhibitory concentration (MIC) was 4 to 8 µg/mL (≈ 10.6 to 21.2 µM).

As to `Cc1[nH]c2ccccc2c1-c1nc(-c2cccs2)c(-c2cccs2)[nH]1` [Compound 25], the MIC lay in the range of 32 to 64 µg/mL (≈ 88.5 to 177 µM). As for `Brc1ccc2[nH]cc(-c3nc(-c4cccs4)c(-c4cccs4)[nH]3)c2c1` [Compound 26], the figure is 2 µg/mL (≈ 4.69 µM); as for `Cc1[nH]c2ccccc2c1-c1nc(-c2ccncc2)c(-c2ccc(F)cc2)[nH]1` [Compound 27], 32 to 64 µg/mL (≈ 86.9 to 174 µM). As to `Fc1ccc(-c2[nH]c(-c3c[nH]c4ccc(Br)cc34)nc2-c2ccncc2)cc1` [Compound 28], the minimum inhibitory concentration (MIC) stood at 2 µg/mL (≈ 4.62 µM). Then `Fc1ccc(-c2[nH]c(-c3c[nH]c4ccccc34)nc2-c2ccccc2)cc1` [Compound 37], with above 128 µg/mL. In the case of `Cc1[nH]c2ccccc2c1-c1nc(-c2ccc(Oc3ccccc3)cc2)c(-c2ccc(Oc3ccccc3)cc2)[nH]1` [Compound 38], the MIC is above 128 µg/mL. On to `Brc1ccc2[nH]cc(-c3nc(-c4ccc(Oc5ccccc5)cc4)c(-c4ccc(Oc5ccccc5)cc4)[nH]3)c2c1` [Compound 39], for which the MIC was above 128 µg/mL. Then `Cc1[nH]c2ccccc2c1-c1nc(-c2ccc(-c3ccccc3)cc2)c(-c2ccc(-c3ccccc3)cc2)[nH]1` [Compound 40], with above 128 µg/mL. Turning to `Cn1cc(-c2nc3c4ccccc4c4ccccc4c3[nH]2)c2ccccc21` [Compound 47], the minimal inhibitory concentration (MIC) was above 128 µg/mL.

As for `Brc1ccc2[nH]cc(-c3nc(-c4ccccc4)c(-c4ccc(-c5ccccc5)cc4)[nH]3)c2c1` [Compound 48], the MIC lay within 4 to 8 µg/mL (≈ 8.16 to 16.3 µM). In the case of `c1ccc(-c2ccc(-c3[nH]c(-c4c[nH]c5ccccc45)nc3-c3ccccc3)cc2)cc1` [Compound 49], the MIC stood at 4 µg/mL (≈ 9.72 µM). Then `Brc1ccc2[nH]cc(-c3nc(-c4ccccc4)c(-c4ccc(N5CCCCC5)cc4)[nH]3)c2c1` [Compound 50], with above 64 µg/mL. As for `Clc1ccc(-c2nc(-c3c[nH]c4ccc(Br)cc34)[nH]c2-c2ccc(-c3ccccc3)cc2)cc1` [Compound 51], the figure is 16 µg/mL (≈ 30.5 µM). Then `Brc1ccc2[nH]cc(-c3nc4c5cc(I)ccc5c5ccc(I)cc5c4[nH]3)c2c1` [Compound 52], with above 64 µg/mL. Take `Ic1ccc2c3ccccc3c3[nH]c(-c4c[nH]c5ccccc45)nc3c2c1` [Compound 53]: the MIC turned out to be 1 µg/mL (≈ 2.18 µM). As for `c1ccc(-c2[nH]c(-c3c[nH]c4ccccc34)nc2-c2cccc3ccccc23)cc1` [Compound 54], the figure is 2 to 4 µg/mL (≈ 5.19 to 10.4 µM); as for `c1ccc(-c2[nH]c(-c3c[nH]c4ccccc34)nc2-c2ccc3ccccc3c2)cc1` [Compound 55], 2 µg/mL (≈ 5.19 µM). On to `Ic1cccc(-c2nc(-c3c[nH]c4ccccc34)[nH]c2-c2cccc(I)c2)c1` [Compound 56], for which the minimal inhibitory concentration (MIC) came to 1 µg/mL (≈ 1.7 µM). Consider `COc1ccc(-c2nc(-c3ccc(O)cc3)[nH]c2-c2ccc(OC)cc2)cc1` [Compound 57], for which the MIC came out at 16 µg/mL (≈ 43 µM).

Regarding `Oc1ccc(-c2nc(-c3ccc(Br)cc3)c(-c3ccccc3)[nH]2)cc1` [Compound 58], the MIC was 4 µg/mL (≈ 10.2 µM). Turning to `O=C(O)c1ccc(-c2nc(-c3ccc(Br)cc3)c(-c3ccccc3)[nH]2)cc1` [Compound 59], the MIC came to 32 µg/mL (≈ 76.3 µM).

`O=C(O)c1ccc(-c2nc(-c3ccccc3)c(-c3cccc4ccccc34)[nH]2)cc1` [Compound 60]: the MIC was 64 µg/mL (≈ 164 µM).

In the case of `Oc1cccc(-c2nc(-c3ccccc3)c(-c3cccc4ccccc34)[nH]2)c1` [Compound 61], the MIC was found to be 8 µg/mL (≈ 22.1 µM). For the molecule `Oc1cccc(-c2nc(-c3ccc(-c4ccccc4)cc3)c(-c3ccccc3)[nH]2)c1` [Compound 62], the MIC was determined as 2 µg/mL (≈ 5.15 µM). `Oc1ccc(-c2nc(-c3ccc(-c4ccccc4)cc3)c(-c3ccccc3)[nH]2)cc1` [Compound 63]: the minimum inhibitory concentration (MIC) is 2 µg/mL (≈ 5.15 µM).

`Cc1ccc(-c2nc(-c3cccc(O)c3)[nH]c2-c2ccccc2Br)cc1` [Compound 64]: the minimum inhibitory concentration (MIC) came to 4 µg/mL (≈ 9.87 µM). In the case of `O=C(O)c1ccc(-c2nc(-c3ccc(Br)cc3)c(-c3ccc(Br)cc3)[nH]2)cc1` [Compound 65], the MIC was found to be 16 µg/mL (≈ 32.1 µM). `COc1cc(-c2nc(-c3ccc(Cl)cc3)c(-c3ccc(Cl)cc3)[nH]2)cc(OC)c1O` [Compound 66]: the MIC was determined as 2 µg/mL (≈ 4.53 µM). Then `Cc1ccc([N+](=O)[O-])cc1-c1[nH]c(-c2cccc(O)c2)nc1-c1ccccc1` [Compound 67], with 16 µg/mL (≈ 43.1 µM); and `Oc1ccc(-c2nc(-c3cccc(Cl)c3Cl)c(-c3ccccc3)[nH]2)cc1O` [Compound 69], with 16 µg/mL (≈ 40.3 µM); and `COc1ccc(-c2nc(-c3cccc(Cl)c3Cl)c(-c3ccccc3)[nH]2)cc1O` [Compound 70], with 8 µg/mL (≈ 19.5 µM). On to `Cc1ccc(C)c(-c2nc(-c3cccc(O)c3)[nH]c2-c2ccccc2)c1` [Compound 71], for which the MIC worked out at 8 µg/mL (≈ 23.5 µM).

As for `O=C(O)c1ccc(-c2nc(-c3ccc4c(c3)-c3cc(-c5[nH]c(-c6ccc(C(=O)O)cc6)nc5-c5ccccc5)ccc3C4=O)c(-c3ccccc3)[nH]2)cc1` [Compound 72], the minimal inhibitory concentration (MIC) fell in the range of 0.5 to 2 µg/mL (≈ 0.709 to 2.84 µM). Take `COc1ccc(-c2nc(-c3ccccc3)c(-c3ccccc3)[nH]2)c(OC)c1` [Compound 73]: the minimum inhibitory concentration (MIC) is above 128 µg/mL. Take `COc1ccc(-c2nc(-c3ccc(F)cc3)c(-c3ccccc3)[nH]2)c(OC)c1` [Compound 74]: the MIC is above 128 µg/mL.

For the molecule `Cc1[nH]c2ccc(N)cc2c1-c1nc(-c2ccc(F)cc2)c(-c2ccccc2)[nH]1` [Compound 75], the minimum inhibitory concentration (MIC) worked out at 32 µg/mL (≈ 83.7 µM). As for `Fc1ccc(-c2nc(-c3ccc4[nH]ccc4c3)[nH]c2-c2ccccc2)cc1` [Compound 76], the figure is above 128 µg/mL. `Cc1[nH]c2ccc([N+](=O)[O-])cc2c1-c1nc(-c2ccc(F)cc2)c(-c2ccccc2)[nH]1` [Compound 77]: the minimum inhibitory concentration (MIC) is above 128 µg/mL.

Consider `COc1cccc(-c2nc(-c3c[nH]c4ccc(Br)cc34)[nH]c2-c2cccc(OC)c2)c1` [Compound 84], for which the minimal inhibitory concentration (MIC) amounted to 2 µg/mL (≈ 4.22 µM).
